These are literature values, as cited in patent US20240173376A1, “TREM-1 INHIBITORS FOR THE TREATMENT OF MARFAN SYNDROME” (INSERM (INSTITUT NATIONAL DE LA SANTÉ ET DE LA RECHERCHE …, priority 2021, published 2024).

Data set [1] deals with AT1R. Conditions: animal model of Marfan's disease (Hibashi et al, Science, 2006).
For data set [2], the target named is T1, AT1R (Homo sapiens, UniProt P30556).
T1 construct: host or cells: patients in randomized clinical studies
T1 sequence (P30556 1-359): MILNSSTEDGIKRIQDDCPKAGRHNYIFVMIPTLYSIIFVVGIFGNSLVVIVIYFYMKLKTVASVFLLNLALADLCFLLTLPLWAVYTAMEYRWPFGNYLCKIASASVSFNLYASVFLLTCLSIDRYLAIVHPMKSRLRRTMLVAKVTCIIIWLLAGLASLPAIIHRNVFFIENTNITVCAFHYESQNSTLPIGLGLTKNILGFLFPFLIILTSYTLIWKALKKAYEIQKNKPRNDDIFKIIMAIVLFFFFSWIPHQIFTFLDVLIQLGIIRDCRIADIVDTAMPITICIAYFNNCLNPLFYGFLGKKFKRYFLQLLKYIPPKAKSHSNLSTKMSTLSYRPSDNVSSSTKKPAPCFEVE

For data set [3] the following is noted: Marfan patients (Shores et al 1994; Ladouceur et al 2007).

Each structure is given as a SMILES string.

Regarding `CCCCc1nc(Cl)c(CO)n1Cc1ccc(-c2ccccc2-c2nn[nH]n2)cc1` [Losartan], in the data set on AT1R [1], the “arterial wall architecture and aortic dilatation” value is “improves arterial wall architecture and reduces aortic dilatation”. Moreover, the benefit in humans entry on AT1R [2] (randomized, double-blind, multicenter study (Milleron et al, Eur Heart J)) is recorded as “no benefit”. Further, the “progression of aortic dilatation in humans” value on AT1R [2] (study with comparable methodology, N=192 (Mullen et al. Lancet 2019)) is “a benefit”.
For `CC(C)NCC(O)COc1cccc2ccccc12` (stereo not shown) [propranolol], the “aortic dilatation and risk of dissection” value in data set [3] is “limits aortic dilatation and the risk of dissection”.
